The values below come from a melting point compilation (Tetko et al.; mined from patent text by program, amines drawn as free bases though some values may be those of a salt).

Non-standard residues stand in square brackets, D forms with d. Residues, ends and D or L forms follow the SMILES beside them. *: point of attachment. Npys = O=[N+]([O-])c1cccnc1S*; Mpa = O=C(O)CCS

One may read the melting point as the temperature of the solid-liquid transition. `CCCCCC(=O)Nc1ccc2scc(Cc3ccc(C(=O)O)cc3OC)c2c1`: the melting point was 234 to 235 °C.

As to `CC(C)C[C@@H](C=O)NC(=O)[C@H](Cc1c[nH]cn1)NC(=O)[C@H](Cc1ccccc1)NC(=O)CCSSc1ncccc1[N+](=O)[O-]` ([Mpa](Npys)FHL-aldehyde), the melting point is 101 to 105 °C.

The compound `CCOC(=O)c1cnc2cc(OC)c(OC)cc2c1Cl` showed a melting point of 147 to 150 °C.

In turn, `CC(C)(C)CC1(C)CC(C)(C)c2ccc(O)cc21` (centres undefined) had a melting point of 102 °C.

In turn, `COC(=O)c1ccc(CC23CCCCN2C(=O)N(c2cc(Cl)cc(Cl)c2)C3=O)cc1` (centres undefined) came in with a melting point of 51 °C.

The compound `CN(C)C(=O)Sc1ccc2ncc([N+](=O)[O-])c(-c3ccccc3)c2c1` returned a melting point of 171 to 173 °C.

Regarding `CCN(CC)CCNC(=O)c1cnc(-c2ccccc2)nc1Cl`, the melting point was 40 to 45 °C.

`FC(F)(F)c1cc(/C=C/c2ncon2)ccc1Cl` registered a melting point of 85 to 87 °C.

The compound `COc1cc(OCCOCc2ccccc2)cc2nc(-c3ccncc3)[nH]c(=O)c12` came in with a melting point of 228 to 230 °C.

Consider `COc1cc(C(=O)Nc2c(C)cc3cn[nH]c3c2C(=O)NC(C)C)n(-c2ncccc2Cl)n1`, for which the melting point is 148 to 151 °C.

Consider `O=C(c1ccccc1)c1nc2ncccc2o1`, for which the melting point lay in the range of 151 to 153 °C.

`COCc1c(C)ccc(C(O)=S)c1C` registered a melting point of 192 to 194 °C.

`CCOC(=O)/C=C/c1ccc(OC(C)C)nc1Oc1ccc(Cl)cc1Cl` displayed a melting point of 92 to 93 °C.

Consider `CC(=O)OC1CCC2(C)C(=CCC3C2CCC2(C=CCl)C(OC(C)=O)CCC32)C1` (centres undefined), for which the melting point lay in the range of 155 to 156 °C.

In the case of `O=C(O)C1CCc2ccc([N+](=O)[O-])cc21` (centres undefined), the melting point is 92 to 94 °C.

The compound `O=C(O)c1ccccc1Oc1ccc(C(F)(F)F)cc1NS(=O)(=O)c1cc(C(F)(F)F)cc(C(F)(F)F)c1` returned a melting point of 133 to 134 °C.

Compound `CCOc1ccc(C2=NN(c3ccc(C4=NNC(=O)CC4C)cc3)C(=O)C3CC=CCC23)cc1OCC` (centres undefined) showed a melting point of 164 to 165 °C.

The compound `Cn1c(=O)oc2c3ncccc3c(Cl)cc21` showed a melting point of 219 to 221 °C.

Regarding `CCNS(=O)(=O)/C=C/c1ccc2[nH]cc(C3CCN(Cc4ccccc4)CC3)c2c1`, the melting point fell in the range of 178 to 180 °C.

The compound `COc1cc(N)c(Cl)cc1C(=O)NCCC1CN(Cc2ccccc2)CCO1` (centres undefined) came in with a melting point of 68 to 72 °C.

In the case of `Oc1nc2ncnn2c(O)c1-c1c(F)cc(F)cc1F`, the melting point lay within 200 to 201 °C.

`CC1(C)OC(=S)Nc2ccc(-c3ccc(C#N)o3)cc21`: the melting point is 200 °C.

As to `CCCCCCCCCCCC(=O)N1CCN(CCO)CC1`, the melting point lay in the range of 38 to 40 °C.

As to `CC(=O)N1CCC(C(=O)c2ccc(Br)cc2)CC1`, the melting point came out at 120 °C.

`O=C(NCCc1c[nH]c2ccccc12)C1CCCCC1` came in with a melting point of 98 to 99 °C.

With `O=C(O)C1c2ccccc2OCc2ncccc21` (centres undefined), the melting point lay in the range of 139 to 140 °C.

Consider `CC(C)(O)c1ccc(C#N)cc1`, for which the melting point lay within 45 to 47 °C.

Regarding `N#CCCCCn1nc(C(N)=O)c2ccccc21`, the melting point lay in the range of 182 to 185 °C.

Turning to `CCOC(=O)c1sc(N2CCNC2=O)nc1C(F)(F)F`, the melting point fell in the range of 185 to 187 °C.

In turn, `CCOC(=O)c1ccc(/C=C(\C)c2cc(OC)c3c(c2)C(C)(C)CC3(C)C)cc1` had a melting point of 72 to 73 °C.

Consider `CCCCCN(CCC12CC3CC(CC(C3)C1)C2)C(=O)NCc1ccccn1`, for which the melting point is 87.5 to 92 °C.

The compound `Cc1ccc2c(c1)C(C(=O)Nc1c(Br)cccc1Br)c1ccccc1CO2` (centres undefined) showed a melting point of 184 °C.

In turn, `COc1cc(NC(=O)OC(C)(C)C)c(NC(=O)CC(=O)c2cccc(-n3ccnc3)c2)cc1-c1ccc(F)cc1C` returned a melting point of 99 to 102 °C.

For `CC(=O)NCCOC1=C2C=C(S(N)(=O)=O)SC2S(=O)(=O)CC1` (centres undefined), the melting point lay within 177 to 181 °C.

For `COc1cc(CCC=CC(=O)CCC(=O)O)cc(OC)c1OC`, the melting point lay in the range of 187 to 189 °C.

For the compound `CC(C)(C)CNc1cc(Cl)nc(Cl)n1`, the melting point was 77 to 79 °C.

`N#Cc1ccc(F)cc1-c1cc(-c2cnc3nc(C(F)(F)F)cnn23)ccc1F` came in with a melting point of 200 to 201 °C.

Take `COc1ccc(C#N)cc1-c1cc(-c2ccc(C#N)cc2[N+](=O)[O-])no1`: the melting point lay in the range of 264 to 266 °C.

`O=C(O)CCCCCCCCCCCCCCCCCCI` displayed a melting point of 70 to 71.5 °C.

Regarding `C=C(CCC(=O)N1C(=O)OC[C@H]1c1ccccc1)c1ccc(F)cc1F`, the melting point was in the range of 50 to 55 °C.

Turning to `CCOC(=O)c1cnc(N2CCN(S(=O)(=O)c3ccc4ccccc4c3)CC2)nc1`, the melting point was more than 260 °C.

On to `CC(C)(S)C(N)P(C)(=O)O` (centres undefined), for which the melting point turned out to be 221 °C.

In turn, `C[C@@H](O)c1nccc(N2CCN(Cc3ccccn3)CC2)n1` returned a melting point of 68 to 70 °C.

For `Cc1nc(-n2ccc(OCc3ccccc3)cc2=O)sc1C(=O)NCc1ccc(F)cc1`, the melting point was in the range of 223 to 225 °C.

In turn, `COC(=O)[C@H](CO)NC(=O)c1ncn2c1CN(C)C(=O)c1sccc1-2` displayed a melting point of 158 to 160 °C.

For the compound `CN1CC[C@@H](c2c(O)cc(O)c3c(=O)cc(-c4ccc(C#N)cc4Cl)oc23)[C@@H]1CO`, the melting point is 237 to 239 °C.

`COc1ccccc1C(Nc1ccncc1)c1ccccc1` (centres undefined) had a melting point of 143 to 145 °C.

For `CCc1cccc(C)c1C(=O)N[C@@H](Cc1ccc([N+](=O)[O-])cc1)C(=O)OC`, the melting point fell in the range of 119 to 121 °C.

As to `Cc1ccc(S(=O)(=O)NC(=O)CC(=O)O)cc1`, the melting point was 80 °C.

Turning to `OC(COc1ccc(Cl)cc1)CSCc1ccc(Cl)cc1` (centres undefined), the melting point lay within 107 to 108 °C.

Regarding `CC1CC(=O)NN=C1c1ccc(-n2cnc3c2CCCC3)cc1` (centres undefined), the melting point lay within 199 to 200 °C.

`COc1cc2c(cc1C(F)(F)F)N(C(=O)Nc1cccc(-c3cnccc3C)c1)CC2` had a melting point of 178 to 180 °C.

The compound `Cc1cc(C)n2nc(NS(=O)(=O)c3cc(Cl)ccc3Cl)nc2n1` yielded a melting point of 216 to 218 °C.

`CCOC(=O)NC1Cc2ccccc2C1Nc1ccccc1CO` (centres undefined) registered a melting point of 115 to 117 °C.

As for `COC(=O)C(=C(/C)c1cc(OC)cc(OC)c1)/C(=C\c1ccccc1)C(=O)NN1CCN(C)CC1`, the melting point was 117 to 121 °C.

On to `Cn1nc(-c2ccc(C(=O)O)cc2)nc1-c1ccccc1`, for which the melting point lay within 243 to 244 °C.

Regarding `COc1ccc(C2Cc3c(cccc3C(F)(F)F)NC(=O)C2=O)cc1` (centres undefined), the melting point lay in the range of 221 to 223 °C.

Compound `O=c1[nH]c(CCl)nc2cc3c(cc12)CCC3` had a melting point of 270 to 272 °C.

In turn, `CCc1cc(CC)c(-c2c(O)c(C)nn(C)c2=O)c(CC)c1I` returned a melting point of 217 to 219 °C.

`COC(=O)NCc1ccc(Br)cc1F` had a melting point of 66 to 67.5 °C.

Regarding `CN1c2ccccc2Sc2cc(C=CC3(C=Cc4ccc5c(c4)Sc4ccccc4N5C)C=CC(c4ccccc4)=CC3)ccc21` (centres undefined), the melting point was 380 °C.

As to `O=C(c1ccc(-c2ccccc2)cc1)n1c2cc(O)c(O)cc2c2ccc(O)c(O)c21`, the melting point lay within 291 to 294 °C.

Consider `C#CCN1CCN(CC(=O)N2c3ccccc3C(=O)Nc3cccnc32)CC1`, for which the melting point fell in the range of 249 to 250 °C.

For the compound `CCOc1nn(Cc2ccc(OCc3nc(-c4ccccc4)oc3C)cn2)cc1CCC(=O)O`, the melting point is 133 to 134 °C.
